{
  "source": "patent US4774232A",
  "about": "“Bile-substituting method of treatment for the promotion of fat digestion” (Chinoin Gyogyszer Es Vegyeszeti Termak Ek Gyara Rt, priority 1985, dated 1988)",
  "key": {"intact rats": {"system": "intact rats", "assay": "Absorption of 3H-stearic acid with oral DIMEB in intact rats", "type": "in vivo, CFY female rats", "conditions": "for Radioactivity in 10 ml of blood: 11.3 mg 3H-stearic acid + 50 mg DIMEB oral", "description": "The effect of DIMEB on the absorption of ^3 H-stearic acid was studied in intact rats. The aim of this experiment was to make clear if the absorption of stearic acid was stimulated by DIMEB under the conditions of physiological bile functions. The animals were starved overnight before and during the experiment but received water ad libitum. One group of the experimental animals (CFY female rats with an average body weight of 180 g; 3 animals ) received 13 mg of ^3 H-stearic acid (specific radioactivity: 147.22 kBq/mg), whereas the other group (3 animals) was given 11.3 mg of ^3 H-stearic acid and 50 mg of DIMEB in 2 ml of distilled water. The substances were suspended in the distilled water ultrasonically. Thereafter, the radioactivity level of the blood was measured at various time intervals by using the liquid scintillation method (Table X)."}, "bile-deficient rats": {"system": "bile-deficient rats", "assay": "Substitution of the bile in rats: 5-day fat treatment, faecal, plasma and liver lipids", "type": "in vivo, rats (Etymis rattus var. albino)", "description": "In an other series of experiments, the total lipid content of the faeces discharged by bile-deficient rats was studied.\nThe oral treatment was started with the daily administration of 1 ml of swine fat or 1 ml of swine fat together with 150 mg of DIMEB, respectively, in the 72nd hour following the ligature. The treatment was continued for 5 days. The faeces was collected in the first 4 days of the treatment. In the 4th hour following the treatment on the 5th day, the experimental animals were decapitated and their samples were worked up. […] An extraordinarily high amount of lipids were eliminated with the faeces of the animals fed with fat. […] Nearly 100 percent of the introduced fat was absorbed under the effect of DIMEB.\nA significant deviation was observed between the groups treated with fat or with fat together with DIMEB, respectively. […] The triglyceride concentration was restored in this group to the control value by the treatment with fat. A significant increase in the triglyceride concentration was induced by the treatment with fat together with DIMEB in comparison to the former group."}, "bile duct-ligated rats": {"system": "bile duct-ligated rats", "assay": "Substitution of the bile in rats: plasma total lipid after single fat dose", "type": "in vivo, rats (Etymis rattus var. albino)", "description": "In the first series of experiments, the total lipid concentration of the plasma was investigated in bile-deficient rats.\nThe experimental rats (Etymis rattus var. albino) were kept on a standard food for 10 days before the experiment. The composition of this animal food was as follows:\nThe bile duct was ligated under ether anaesthesia.\nIn the 48th hour following the operation, 1.5 ml of swine fat or 1.5 ml of swine fat together with 75 mg of DIMEB were orally administered. After 4.5 hours, the animals were decapitated and the total lipid concentration of the plasma was determined according to the method of de La Huerga et al. [Amer. J. Clin. Pathol. 23, 1163 (1953)]"}, "[1]": {"conditions": "bile acid-deficient rats, daily 1 ml fat + 150 mg DIMEB, treatment lasting 5 days"}},
  "data": [
    {"smiles": "COC[C@H]1O[C@@H]2O[C@H]3[C@H](O)[C@@H](OC)[C@@H](O[C@H]4[C@H](O)[C@@H](OC)[C@@H](O[C@H]5[C@H](O)[C@@H](OC)[C@@H](O[C@H]6[C@H](O)[C@@H](OC)[C@@H](O[C@H]7[C@H](O)[C@@H](OC)[C@@H](O[C@H]8[C@H](O)[C@@H](OC)[C@@H](O[C@H]1[C@H](O)[C@H]2OC)O[C@@H]8COC)O[C@@H]7COC)O[C@@H]6COC)O[C@@H]5COC)O[C@@H]4COC)O[C@@H]3COC", "note": "[DIMEB, heptakis(2,6-di-O-methyl)-β-cyclodextrin]", "values": [
      {"measurement": "Radioactivity in 10 ml of blood", "setting": "intact rats; 1 h, animal 4", "result": 1.71, "unit": "percentage"},
      {"measurement": "Radioactivity in 10 ml of blood", "setting": "intact rats; 1 h, animal 5", "result": 1.74, "unit": "percentage"},
      {"measurement": "Radioactivity in 10 ml of blood", "setting": "intact rats; 1 h, animal 6", "result": 2.23, "unit": "percentage"},
      {"measurement": "Radioactivity in 10 ml of blood", "setting": "intact rats; 1 h, mean", "result": 1.89, "unit": "percentage"},
      {"measurement": "Radioactivity in 10 ml of blood", "setting": "intact rats; 2 h, animal 4", "result": 1.84, "unit": "percentage"},
      {"measurement": "Radioactivity in 10 ml of blood", "setting": "intact rats; 2 h, animal 5", "result": 1.88, "unit": "percentage"},
      {"measurement": "Radioactivity in 10 ml of blood", "setting": "intact rats; 2 h, animal 6", "result": 2.00, "unit": "percentage"},
      {"measurement": "Radioactivity in 10 ml of blood", "setting": "intact rats; 2 h, mean", "result": 1.91, "unit": "percentage"},
      {"measurement": "Radioactivity in 10 ml of blood", "setting": "intact rats; 3 h, animal 4", "result": 2.03, "unit": "percentage"},
      {"measurement": "Radioactivity in 10 ml of blood", "setting": "intact rats; 3 h, animal 5", "result": 1.75, "unit": "percentage"},
      {"measurement": "Radioactivity in 10 ml of blood", "setting": "intact rats; 3 h, animal 6", "result": 2.13, "unit": "percentage"},
      {"measurement": "Radioactivity in 10 ml of blood", "setting": "intact rats; 3 h, mean", "result": 1.97, "unit": "percentage"},
      {"measurement": "Radioactivity in 10 ml of blood", "setting": "intact rats; 4 h, animal 4", "result": 2.12, "unit": "percentage"},
      {"measurement": "Radioactivity in 10 ml of blood", "setting": "intact rats; 4 h, animal 5", "result": 1.71, "unit": "percentage"},
      {"measurement": "Radioactivity in 10 ml of blood", "setting": "intact rats; 4 h, animal 6", "result": 1.99, "unit": "percentage"},
      {"measurement": "Radioactivity in 10 ml of blood", "setting": "intact rats; 4 h, mean", "result": 1.94, "unit": "percentage"},
      {"measurement": "Radioactivity in 10 ml of blood", "setting": "intact rats; 5 h, animal 4", "result": 2.10, "unit": "percentage"},
      {"measurement": "Radioactivity in 10 ml of blood", "setting": "intact rats; 5 h, animal 5", "result": 1.76, "unit": "percentage"},
      {"measurement": "Radioactivity in 10 ml of blood", "setting": "intact rats; 5 h, animal 6", "result": 2.00, "unit": "percentage"},
      {"measurement": "Radioactivity in 10 ml of blood", "setting": "intact rats; 5 h, mean", "result": 1.95, "unit": "percentage"},
      {"measurement": "Radioactivity in 10 ml of blood", "setting": "intact rats; 6 h, animal 4", "result": 2.16, "unit": "percentage"},
      {"measurement": "Radioactivity in 10 ml of blood", "setting": "intact rats; 6 h, animal 5", "result": 1.75, "unit": "percentage"},
      {"measurement": "Radioactivity in 10 ml of blood", "setting": "intact rats; 6 h, animal 6", "result": 2.04, "unit": "percentage"},
      {"measurement": "Radioactivity in 10 ml of blood", "setting": "intact rats; 6 h, mean", "result": 1.98, "unit": "percentage"},
      {"measurement": "Radioactivity in 10 ml of blood", "setting": "intact rats; 8 h, animal 4", "result": 2.16, "unit": "percentage"},
      {"measurement": "Radioactivity in 10 ml of blood", "setting": "intact rats; 8 h, animal 5", "result": 1.84, "unit": "percentage"},
      {"measurement": "Radioactivity in 10 ml of blood", "setting": "intact rats; 8 h, animal 6", "result": 1.94, "unit": "percentage"},
      {"measurement": "Radioactivity in 10 ml of blood", "setting": "intact rats; 8 h, mean", "result": 1.98, "unit": "percentage"},
      {"measurement": "Radioactivity in 10 ml of blood", "setting": "intact rats; 10 h, animal 4", "result": 2.20, "unit": "percentage"},
      {"measurement": "Radioactivity in 10 ml of blood", "setting": "intact rats; 10 h, animal 5", "result": 2.02, "unit": "percentage"},
      {"measurement": "Radioactivity in 10 ml of blood", "setting": "intact rats; 10 h, animal 6", "result": 2.21, "unit": "percentage"},
      {"measurement": "Radioactivity in 10 ml of blood", "setting": "intact rats; 10 h, mean", "result": 2.14, "unit": "percentage"},
      {"measurement": "Radioactivity in 10 ml of blood", "setting": "intact rats; 24 h, animal 4", "result": 2.84, "unit": "percentage"},
      {"measurement": "Radioactivity in 10 ml of blood", "setting": "intact rats; 24 h, animal 5", "result": 2.94, "unit": "percentage"},
      {"measurement": "Radioactivity in 10 ml of blood", "setting": "intact rats; 24 h, animal 6", "result": 2.39, "unit": "percentage"},
      {"measurement": "Radioactivity in 10 ml of blood", "setting": "intact rats; 24 h, mean", "result": 2.72, "unit": "percentage"},
      {"measurement": "Radioactivity of the blood, percent of the administered activity", "setting": "intact rats; 24th hour, both groups", "result": 2.7, "unit": "%"},
      {"measurement": "Absorption-enhancing effect on 3H-stearic acid", "setting": "intact rats; physiological bile functions, 50 mg DIMEB", "result": "did not show any absorption-enhancing effect"},
      {"measurement": "Fat discharge (total lipid content of the faeces)", "setting": "bile-deficient rats; bile acid-deficient rats, daily 1 ml fat + 150 mg DIMEB for 5 days, faeces of first 4 days", "result": "6.16 ± 2.37", "unit": "g/100 g"},
      {"measurement": "Liver triglycerides", "setting": "bile-deficient rats; [1]", "result": "9.1 ± 2.2", "unit": "mg/100 ml"},
      {"measurement": "Plasma total lipids", "setting": "bile-deficient rats; [1]", "result": "688.7 ± 95.8", "unit": "mg/100 ml"},
      {"measurement": "Plasma triglycerides", "setting": "bile-deficient rats; [1]", "result": "71.9 ± 19.1", "unit": "mg/100 ml"},
      {"measurement": "Introduced fat absorbed", "setting": "bile-deficient rats; bile-deficient rats, daily 1 ml swine fat + 150 mg DIMEB", "result": "~100", "unit": "%"},
      {"measurement": "Increase of total lipid fraction in the blood plasma", "setting": "bile duct-ligated rats; bile duct-ligated rats, 1.5 ml fat + 75 mg DIMEB", "result": 5, "unit": "fold"},
      {"measurement": "Total lipid concentration of the blood plasma", "setting": "bile duct-ligated rats; rats after bile duct-ligation, 1.5 ml fat + 75 mg DIMEB oral, after 4.5 hours", "result": "1266.6 ± 86.5", "unit": "mg/100 ml"}
    ]}
  ]
}
